Experimental data from PubChem BioAssay AID192 (DTP/NCI, 2004).
Where “and” joins values, the source holds several entries; their conditions need not be identical. Equal entries are not always repeated. Toxic doses and inconclusive results are not listed.

System: BDF1 mice, B16 melanoma ip, median survival T/C
Test: NCI In Vivo Anticancer Drug Screen. Data for tumor model B16 Melanoma (intraperitoneal) in B6D2F1 (BDF1) mice
Settings: endpoint: median survival time, higher = longer survival
Outline: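 Antitumor activity is assessed in mice bearing a transplanted tumor, with survival or tumor size compared against vehicle-dosed controls and expressed as T/C.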

[1] = dose: 100.0 mg/kg/injection, schedule: Q01DX009 (ip), vehicle: saline with Tween-80
[2] = dose: 200.0 mg/kg/injection, schedule: Q01DX009 (ip), vehicle: saline with Tween-80
[3] = dose: 400.0 mg/kg/injection, schedule: Q01DX009 (ip), vehicle: saline with Tween-80
[4] = dose: 12.5 mg/kg/injection, schedule: Q01DX009 (ip), vehicle: saline with Tween-80
[5] = dose: 25.0 mg/kg/injection, schedule: Q01DX009 (ip), vehicle: saline with Tween-80
[6] = dose: 100.0 mg/kg/injection, schedule: Q04DX003 (ip), vehicle: saline with Tween-80
[7] = dose: 200.0 mg/kg/injection, schedule: Q04DX003 (ip), vehicle: saline with Tween-80
[8] = dose: 400.0 mg/kg/injection, schedule: Q04DX003 (ip), vehicle: saline with Tween-80

`NC(CCSCc1ccccc1)C(=O)O` (configuration not stated) was tested, and the T/C [1] was 105 % of control, the T/C [2] was 96 % of control and the T/C [3] was 87 % of control.

With `CNC(=S)N/N=C/c1ccc([N+](=O)[O-])s1` the T/C (dose: 50.0 mg/kg/injection, schedule: Q01DX009 (ip), vehicle: saline with Tween-80) was 90 % of control, the T/C [1] was 92 % of control and the T/C [2] was 92 % of control.

`CN(C)N=Nc1ccnc2c(Br)cccc12` was tested, and the T/C (dose: 14.4 mg/kg/injection, schedule: Q01DX009 (ip), vehicle: DMSO) was 90 % of control, the T/C (dose: 24.0 mg/kg/injection, schedule: Q01DX009 (ip), vehicle: DMSO) was 97 % of control and the T/C (dose: 40.0 mg/kg/injection, schedule: Q01DX009 (ip), vehicle: DMSO) was 90 % of control. The T/C (dose: 66.7 mg/kg/injection, schedule: Q01DX009 (ip), vehicle: DMSO) was 101 % of control.

`C=C1C(C)C2C(Cc3ccccc3)NC(=O)C23C(OC(C)=O)C=CC(C)(O)C(=O)C(C)C/C=C/C3C1O` (configuration not stated) was tested, and the T/C (dose: 0.63 mg/kg/injection, schedule: Q01DX009 (ip), vehicle: Klucel (hydroxypropylcellulose) (HPC)) was 103 % of control, the T/C (dose: 1.25 mg/kg/injection, schedule: Q01DX009 (ip), vehicle: Klucel (hydroxypropylcellulose) (HPC)) was 94 % of control and 114 % of control and the T/C (dose: 2.5 mg/kg/injection, schedule: Q01DX009 (ip), vehicle: Klucel (hydroxypropylcellulose) (HPC)) was 100 % of control and 114 % of control. For the same compound, the T/C (dose: 5.0 mg/kg/injection, schedule: Q01DX009 (ip), vehicle: Klucel (hydroxypropylcellulose) (HPC)) was 108 % of control and 112 % of control.

For `O=NN(CCF)C(=O)NC1CCC(NC(=O)N(CCF)N=O)CC1` (configuration not stated), the T/C [4] was 166 % of control, the T/C (dose: 16.5 mg/kg/injection, schedule: Q01DX009 (ip), vehicle: saline with Tween-80) was 232 % of control and the T/C (dose: 16.5 mg/kg/injection, schedule: Q01DX009 (ip), vehicle: saline) was 181 % of control. For the same compound, the T/C [5] was 214 % of control and 276 % of control, the T/C (dose: 25.0 mg/kg/injection, schedule: Q01DX009 (ip), vehicle: saline) was 120 % of control and the T/C (dose: 37.5 mg/kg/injection, schedule: Q01DX009 (ip), vehicle: saline with Tween-80) was 212 % of control.

With `CC(C)[C@]12O[C@H]1[C@@H]1O[C@]13[C@]1(O[C@H]1C[C@H]1C4=C(CC[C@@]13C)C(=O)OC4)[C@@H]2O` the T/C (dose: 8.0 micrograms/kg/injection, schedule: Q01DX009 (ip), vehicle: saline + alcohol) was 114 % of control, the T/C (dose: 12.5 micrograms/kg/injection, schedule: Q01DX009 (ip), vehicle: saline with Tween-80) was 119 % of control and the T/C (dose: 16.0 micrograms/kg/injection, schedule: Q01DX009 (ip), vehicle: saline + alcohol) was 109 % of control. For the same compound, the T/C (dose: 25.0 micrograms/kg/injection, schedule: Q01DX009 (ip), vehicle: saline with Tween-80) was 112 % of control, the T/C (dose: 32.0 micrograms/kg/injection, schedule: Q01DX009 (ip), vehicle: saline + alcohol) was 104 % of control and the T/C (dose: 50.0 micrograms/kg/injection, schedule: Q01DX009 (ip), vehicle: saline with Tween-80) was 124 % of control. The T/C (dose: 64.0 micrograms/kg/injection, schedule: Q01DX009 (ip), vehicle: saline + alcohol) was 104 % of control, the T/C (dose: 100.0 micrograms/kg/injection, schedule: Q01DX009 (ip), vehicle: saline with Tween-80) was 107 % of control and the T/C (dose: 200.0 micrograms/kg/injection, schedule: Q01DX009 (ip), vehicle: saline with Tween-80) was 122 % of control. The T/C (dose: 400.0 micrograms/kg/injection, schedule: Q01DX009 (ip), vehicle: saline with Tween-80) was 100 % of control.

For `CCCCCCCCCCCCCCCCCC(=O)Nc1ccn(C2OC(CO)C(O)C2O)c(=O)n1` (configuration not stated), the T/C [4] was 154 % of control and the T/C [5] was 165 % of control and 203 % of control.

With `C=C(C)[C@@]12O[C@@]3(/C=C/C=C/CCCCC)O[C@@H]1[C@@H]1[C@@H]4O[C@]4(COC(=O)CCCCCCCCCCCCCCC)[C@@H](O)[C@]4(O)C(=O)C(C)=CC4[C@@]1(O3)[C@H](C)[C@H]2OC(=O)c1ccccc1` (some centres not stated) the T/C (dose: 0.5 micrograms/kg/injection, schedule: Q01DX009 (ip), vehicle: saline) was 102 % of control, the T/C (dose: 1.0 micrograms/kg/injection, schedule: Q01DX009 (ip), vehicle: saline) was 106 % of control and the T/C (dose: 1.9 micrograms/kg/injection, schedule: Q01DX009 (ip), vehicle: saline) was 105 % of control. For the same compound, the T/C (dose: 3.8 micrograms/kg/injection, schedule: Q01DX009 (ip), vehicle: saline) was 99 % of control, the T/C (dose: 7.5 micrograms/kg/injection, schedule: Q01DX009 (ip), vehicle: saline) was 102 % of control and the T/C (dose: 15.0 micrograms/kg/injection, schedule: Q01DX009 (ip), vehicle: saline) was 103 % of control. For the same compound, the T/C (dose: 30.0 micrograms/kg/injection, schedule: Q01DX009 (ip), vehicle: saline) was 104 % of control.

With `Cc1ccc(S(=O)(=O)[O][Pb]([CH3])([CH3])[CH3])cc1` the T/C (dose: 0.18 mg/kg/injection, schedule: Q01DX009 (ip), vehicle: saline) was 97 % of control, the T/C (dose: 0.37 mg/kg/injection, schedule: Q01DX009 (ip), vehicle: saline) was 92 % of control and the T/C (dose: 0.75 mg/kg/injection, schedule: Q01DX009 (ip), vehicle: saline) was 104 % of control. For the same compound, the T/C (dose: 1.5 mg/kg/injection, schedule: Q01DX009 (ip), vehicle: saline) was 97 % of control.

For `O=C(NCCCN1CC1)C(=O)NCCCN1CC1`, the T/C (dose: 1.56 mg/kg/injection, schedule: Q01DX009 (ip), vehicle: saline) was 165 % of control, the T/C (dose: 3.13 mg/kg/injection, schedule: Q01DX009 (ip), vehicle: saline) was 194 % of control and the T/C (dose: 6.25 mg/kg/injection, schedule: Q01DX009 (ip), vehicle: saline) was 96 % of control.

In the case of `O=[N+]([O-])/C=C/c1ccc([N+](=O)[O-])cc1Cl`, the T/C (dose: 0.18 mg/kg/injection, schedule: Q01DX009 (ip), vehicle: Klucel (hydroxypropylcellulose) (HPC)) is reported as 111 % of control, the T/C (dose: 0.37 mg/kg/injection, schedule: Q01DX009 (ip), vehicle: Klucel (hydroxypropylcellulose) (HPC)) is reported as 96 % of control and the T/C (dose: 0.75 mg/kg/injection, schedule: Q01DX009 (ip), vehicle: Klucel (hydroxypropylcellulose) (HPC)) is reported as 87 % of control and 90 % of control.

With `OC1CC2CC1C=C2c1ccccc1` (configuration not stated) the T/C [6] was 102 % of control, the T/C [7] was 105 % of control and the T/C [8] was 94 % of control.

With `CCOc1ccc([NH-])c([NH-])c1.[Cl][Pt+2][Cl]` the T/C (dose: 2.5 mg/kg/injection, schedule: Q01DX009 (ip), vehicle: distilled water + Tween-80) was 115 % of control, the T/C (dose: 5.0 mg/kg/injection, schedule: Q01DX009 (ip), vehicle: distilled water + Tween-80) was 115 % of control and the T/C (dose: 10.0 mg/kg/injection, schedule: Q01DX009 (ip), vehicle: distilled water + Tween-80) was 117 % of control. The T/C (dose: 20.0 mg/kg/injection, schedule: Q01DX009 (ip), vehicle: distilled water + Tween-80) was 102 % of control.

`CC(=O)OCC(Br)C(Br)COC(C)=O` (configuration not stated) was tested, and the T/C [1] was 100 % of control, the T/C [2] was 97 % of control and the T/C [3] was 97 % of control.

For `C=C1C(=O)OC2C1CCC(=C)C1CC(O)C(=C)C12` (configuration not stated), the T/C (dose: 67.0 mg/kg/injection, schedule: Q01DX009 (ip), vehicle: saline with Tween-80) was 87 % of control and the T/C [1] was 87 % of control.

In the case of `NC(=O)c1nc2n(c1N)CCC2`, the T/C [6] is reported as 102 % of control, the T/C [7] is reported as 105 % of control and the T/C [8] is reported as 94 % of control.

For `CC(C)(C)c1cc([N+](=O)[O-])cc([N+](=O)[O-])c1O`, the T/C (dose: 1.56 mg/kg/injection, schedule: Q01DX009 (ip), vehicle: saline with Tween-80) was 99 % of control, the T/C (dose: 3.13 mg/kg/injection, schedule: Q01DX009 (ip), vehicle: saline with Tween-80) was 96 % of control and the T/C (dose: 6.25 mg/kg/injection, schedule: Q01DX009 (ip), vehicle: saline with Tween-80) was 93 % of control. The T/C [4] was 89 % of control.

For `O=CN(O)CC(=O)O.[Zn]`, the T/C (dose: 5.0 mg/kg/injection, schedule: Q01DX009 (ip), vehicle: saline) was 99 % of control, the T/C (dose: 10.0 mg/kg/injection, schedule: Q01DX009 (ip), vehicle: saline) was 98 % of control and the T/C (dose: 20.0 mg/kg/injection, schedule: Q01DX009 (ip), vehicle: saline) was 88 % of control.

In the case of `O=S(=O)(O)c1ccc2c(O)cc(S(=O)(=O)O)cc2c1`, the T/C (dose: 100.0 mg/kg/injection, schedule: Q04DX003 (ip), vehicle: saline) is reported as 100 % of control, the T/C (dose: 200.0 mg/kg/injection, schedule: Q04DX003 (ip), vehicle: saline) is reported as 105 % of control and the T/C (dose: 400.0 mg/kg/injection, schedule: Q04DX003 (ip), vehicle: saline) is reported as 108 % of control.

With `CCc1c2cc3c(cc2cc2c4cc5c(cc4cc[n+]12)OCO5)OCO3` (tested in a mixture with another compound) the T/C (dose: 1.56 mg/kg/injection, schedule: Q01DX009 (ip), vehicle: Klucel (hydroxypropylcellulose) (HPC)) was 103 % of control, the T/C (dose: 3.13 mg/kg/injection, schedule: Q01DX009 (ip), vehicle: Klucel (hydroxypropylcellulose) (HPC)) was 106 % of control and the T/C (dose: 6.25 mg/kg/injection, schedule: Q01DX009 (ip), vehicle: Klucel (hydroxypropylcellulose) (HPC)) was 106 % of control.
